Assay results from patent US7678799B2 (Teva Pharmaceutical Industries Ltd., priority 2003, dated 2010).
Counter-ions that a name gives are not always drawn.

Legend:
[1] = Storage at 0% relative humidity, crystal form by XRD; assay type: physicochemical; conditions: for transformed into Form M upon exposure to 0% relative humidity: 0% humidity, prolonged periods (such as 3 weeks)
Source text: (§1) In addition, no more than 5% of Form A transforms into Form M during heating and also during exposure to 0% relative humidity.
(§2) Ziprasidone HCl Form M, however, converts to the anhydrous form under heating (see table 1 and FIG. 8) or exposure to 0% relative humidity (see table 6 and FIG. 10).
(§3) This crystalline form may be sesquihydrate.
(§4) X-Ray powder diffraction data were obtained using by method known in the art using a SCINTAG powder X-Ray diffractometer model X'TRA equipped with a solid state detector. Copper radiation of 1.5418 Å was used. A round aluminum sample holder with round zero background quartz plate, with cavity of 25(diameter)*0.5(dept) mm. Detection limit: 5%.

[2] = Storage stability at 25, 40 and 55° C., crystal form by XRD; assay type: physicochemical
Source text: as §2, §3, §4

[3] = Specific surface area measurement (BET, Coulter SA3100); assay type: physicochemical; conditions: for Specific surface area: BET
Source text: Preferably, the SSA is about 5 to about 20 m^2/g.
Specific surface area measurement: • Instrument: Coulter SA3100 • Degassing: without • Sensitivity: high • Calculation: BET • Type: multipoint • Points: 10 • Sample cell: 9 and 12cm^3

[4] = Slurry of Form A in water or ethanol, transformation to Form M; assay type: physicochemical
[5] = Heating of crystalline ziprasidone HCl forms, crystal form by XRD; assay type: physicochemical; conditions: for Crystal form after heating at 80-105° C. overnight: HCl
Source text: as §1, §4

[6] = Equilibration of ziprasidone HCl form E at different relative humidities for 22 days (TGA, XRD); assay type: physicochemical; conditions: for TGA weight loss (water uptake) / Crystal form: 22 days
Description: The slurry temperature is preferably at least about 40° C. when using THF.
as §4
TGA analysis was done using a Mettler M3 meter. The weight of the samples was about 10 mg; the samples were scanned at a rate of 10° C./min from 25° C. to 200° C. The oven was constantly purged with nitrogen gas at a flow rate of 40 ml/min. Standard 70 μl alumina crucibles covered by lids with 1 hole were used.

[7] = cited from earlier work

For `O=C1Cc2cc(CCN3CCN(c4nsc5ccccc45)CC3)c(Cl)cc2N1` [Crystalline ziprasidone HCl having a water content of 4.6-6.], the “transformed into Form M upon exposure to 0% relative humidity” value ([1]; listed as solid crystalline ziprasidone HCl having a water content of about 4.6% to about ) was “No more than 5%” and the “transforms into Form M upon storage” value ([2]; 25, 40 and 55° C. for at least 3 months) was “No more than 5%”.

Work on `O=C1Cc2cc(CCN3CCN(c4nsc5ccccc45)CC3)c(Cl)cc2N1` [Example 15, ziprasidone HCl, reference compound] yielded a Specific surface area ([3]; cell volume = 9 cm^3, HCl) of 3.908 m^2/g and a Specific surface area ([3]; cell volume = 9 cm^3, listed as Repetition of U.S. Pat. No. 6,150,366 procedure (comparative example 15), HCl) of 3.908 m^2/g.

Compound `O=C1Cc2cc(CCN3CCN(c4nsc5ccccc45)CC3)c(Cl)cc2N1` [Example 16, ziprasidone HCl] has a Specific surface area ([3]; cell volume = 9 cm^3, HCl) of 5.461 m^2/g and a Specific surface area ([3]; cell volume = 9 cm^3, listed as Sample prepared according to example 16, HCl) of 5.461 m^2/g.

`O=C1Cc2cc(CCN3CCN(c4nsc5ccccc45)CC3)c(Cl)cc2N1` [Example 17, ziprasidone HCl] gave a Specific surface area ([3]; cell volume = 12 cm^3, HCl) of 14.646 m^2/g and a Specific surface area ([3]; cell volume = 12 cm^3, listed as Sample prepared according to example 17, HCl) of 14.646 m^2/g.

In the case of `O=C1Cc2cc(CCN3CCN(c4nsc5ccccc45)CC3)c(Cl)cc2N1` [Example 18, ziprasidone HCl], the Specific surface area ([3]; cell volume = 12 cm^3, HCl) is reported as 18.831 m^2/g and the Specific surface area ([3]; cell volume = 12 cm^3, listed as Sample prepared according to example 18, HCl) is reported as 18.831 m^2/g.

For `O=C1Cc2cc(CCN3CCN(c4nsc5ccccc45)CC3)c(Cl)cc2N1` [Example 19, ziprasidone HCl], the Specific surface area ([3]; cell volume = 9 cm^3, HCl) was 11.335 m^2/g and the Specific surface area ([3]; cell volume = 9 cm^3, listed as Sample prepared according to example 19, HCl) was 11.335 m^2/g.

In the case of `O=C1Cc2cc(CCN3CCN(c4nsc5ccccc45)CC3)c(Cl)cc2N1` [Form A, ziprasidone HCl], the “transforms to Form M” value ([4]; ethanol slurry) is reported as 95%, the “Form A transformed into Form M” value ([4]; slurried in water) is reported as “no more than 5%” and the “transformed into Form M upon exposure to 0% relative humidity” value ([1]; HCl) is reported as “no more than 5%”. The “Crystal form upon storage at 0% relative humidity” value ([1]; HCl) was “Form A”, the “temperature of heating without a change in the crystal structure” value [5] was “up to 140 °C” and the “Crystal form after heating at 80-105° C. overnight” value [5] was “Form A”. The “Form A transformed into Form M during heating” value ([5]; heating) was “no more than 5%”, the “specific surface area (SSA)” value ([3]; as measured by BET, general statement) was “higher than 4 m^2/g” and the “transformed into Form M upon storage under accelerated aging conditions” value ([2]; 40° C., 75% RH, at least about 6 months) was “no more than 5%”.

In the case of `O=C1Cc2cc(CCN3CCN(c4nsc5ccccc45)CC3)c(Cl)cc2N1` [Form E, ziprasidone HCl], the “TGA weight loss (water uptake)” value ([6]; RH 0%) is reported as 5.3%, the “TGA weight loss (water uptake)” value ([6]; RH 20%) is reported as 7.2% and the “TGA weight loss (water uptake)” value ([6]; RH 40%) is reported as 4.8%. The “TGA weight loss (water uptake)” value ([6]; RH 60%) was 5.0%, the Crystal form ([6]; RH 80%) was “M + A” and the “TGA weight loss (water uptake)” value ([6]; RH 80%) was 9.2%. For the same compound, the Crystal form ([6]; RH 100%) was “M + A + amorphous” and the “crystal form after exposure to relative humidity” value ([6]; relative humidity of about 20% to about 60% for about 22 days) was “Form A”.

With `O=C1Cc2cc(CCN3CCN(c4nsc5ccccc45)CC3)c(Cl)cc2N1` [Form M, ziprasidone HCl, reference compound] the “Crystal form upon storage at 0% relative humidity” value ([1]; HCl) was “Anhydrous” and the “Crystal form after heating at 80-105° C. overnight” value [5] was “Anhydrous”.

For `O=C1Cc2cc(CCN3CCN(c4nsc5ccccc45)CC3)c(Cl)cc2N1` [Repetition of U.S. Pat. No. 5,312,925 Example 2] [ziprasidone HCl, reference compound], the Specific surface area ([3]; cell volume = 9 cm^3, HCl) was 3.909 m^2/g.

Compound `O=C1Cc2cc(CCN3CCN(c4nsc5ccccc45)CC3)c(Cl)cc2N1` [Repetition of U.S. Pat. No. 6,150,366 Example 10] [ziprasidone HCl, reference compound] has a Specific surface area ([3]; cell volume = 9 cm^3, HCl) of 2.135 m^2/g.

For `O=C1Cc2cc(CCN3CCN(c4nsc5ccccc45)CC3)c(Cl)cc2N1` [Ziprasidone HCl], the solubility in water [7] is listed as 80 µg/mL.
